The target of the test is T1, Kv1.3 potassium channel (Homo sapiens, UniProt P22001).
T1 construct: expressed in transfected cells
As to the kind of experiment: Kv1.3 potassium channel blocker activity, automated whole-cell patch clamp (Patchliner). Format: cell-based. The method, then:
This assay is used to evaluate the disclosed compounds' activities as Kv1.3 potassium channel blockers.
CHO-K1 cells stably expressing Kv1.3 were grown in DMEM containing 10% heat-inactivated FBS, 1 mM sodium pyruvate, 2 mM L-glutamine and G418 (500 μg/ml). Cells were grown in culture flasks at 37° C. in a 5% CO2-humidified incubator.
The cells were bathed in an extracellular solution containing 140 mM NaCl, 4 mM KCl, 2 mM CaCl2), 1 mM MgCl2, 5 mM glucose, and 10 mM HEPES; pH adjusted to 7.4 with NaOH; 295-305 mOsm. The internal solution contained 50 mM KCl, 10 mM NaCl, 60 mM KF, 20 mM EGTA, and 10 mM HEPES; pH adjusted to 7.2 with KOH; 285 mOsm. All compounds were dissolved in DMSO at 30 mM. Compound stock solutions were freshly diluted with external solution to concentrations of 30 nM, 100 nM, 300 nM, 1 μM, 3 μM, 10 μM, 30 μM and 100 μM. The highest content of DMSO (0.3%) was present in 100 μM.
The currents were evoked by applying 100 ms depolarizing pulses from −90 mV (holding potential) to +40 mV were applied with 0.1 Hz frequency. Control (compound-free) and compound pulse trains for each compound concentration applied contained 20 pulses.
10-second breaks were used between pulse trains (see Table 2 below).
Whole-cell current recordings and compound application were enabled by means of an automated patch clamp platform Patchliner (Nanion Technologies GmbH). EPC 10 patch clamp amplifier (HEKA Elektronik Dr. Schulze GmbH) along with Patchmaster software (HEKA Elektronik Dr. Schulze GmbH) was used for data acquisition. Data were sampled at 10 kHz without filtering. Passive leak currents were subtracted online using a P/4 procedure (HEKA Elektronik Dr. Schulze GmbH). Increasing compound concentrations were applied consecutively to the same cell without washouts in between. Total compound incubation time before the next pulse train was not longer than 10 seconds. Peak current inhibition was observed during compound equilibration.
AUC and peak values were obtained with Patchmaster (HEKA Elektronik Dr. Schulze GmbH). To determine IC50, the last single pulse in the pulse train corresponding to a given compound concentration was used. Obtained AUC and peak values in the presence of compound were normalized to control values in the absence of compound. Using Origin (OridinLab), IC50 was derived from data fit to Hill equation: Icompound/Icontrol=(100−A)/(1+([compound]/IC50)nH)+A, where IC50 value is the concentration at which current inhibition is half-maximal, [compound] is the applied compound concentration, A is the fraction of current that is not blocked and nH is the Hill coefficient.

[1] abbreviates: CHO-K1 cells stably expressing Kv1.3, 100 ms pulses from -90 mV to +40 mV, 0.1 Hz.
[2] abbreviates: Kv1.3 potassium channel, whole-cell patch clamp.

This is an account of results in US20230049231A1 (priority 2019, published 2023).

Structures are written as SMILES.

T1 sequence (P22001 whole entry): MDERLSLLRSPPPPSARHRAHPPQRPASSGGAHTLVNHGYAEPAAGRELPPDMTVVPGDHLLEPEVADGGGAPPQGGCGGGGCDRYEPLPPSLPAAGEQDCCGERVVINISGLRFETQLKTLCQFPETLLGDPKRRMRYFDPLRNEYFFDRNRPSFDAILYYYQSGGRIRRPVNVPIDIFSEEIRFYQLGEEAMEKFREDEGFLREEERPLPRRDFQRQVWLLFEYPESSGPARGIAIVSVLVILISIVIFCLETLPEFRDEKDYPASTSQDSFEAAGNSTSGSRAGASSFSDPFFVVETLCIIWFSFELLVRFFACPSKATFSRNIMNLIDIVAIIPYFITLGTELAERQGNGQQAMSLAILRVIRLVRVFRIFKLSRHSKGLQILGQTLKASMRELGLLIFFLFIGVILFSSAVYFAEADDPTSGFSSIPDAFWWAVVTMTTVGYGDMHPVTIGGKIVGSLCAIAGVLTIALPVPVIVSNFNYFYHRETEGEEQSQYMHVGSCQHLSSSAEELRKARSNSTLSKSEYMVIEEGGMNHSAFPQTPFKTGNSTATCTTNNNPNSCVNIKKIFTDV

Consider `O=C1CNC[C@H]2C[C@@H](c3c(O)ccc(Cl)c3Cl)CCN12` [Compound 39], for which the half-inhibitory concentration (IC50) (as a rule, the concentration that inhibits the measured activity by half) under setting [1] was < 1 µM.

Regarding `CN(C)C(=O)N1CC(=O)N2C[C@@H](c3c(O)ccc(Cl)c3Cl)C[C@H]2C1` [Compound 30, (7R,8aS)-7-(2,3-dichloro-6-hydroxyphenyl)-N,N-dimethyl-4-oxohexahydropyrrolo[1,2-a]pyrazine-2(1H)-carboxamide], under setting [1], the IC50 is < 1 µM.

Take `C[C@@H]1[C@@H]2C[C@H](c3c(O)ccc(Cl)c3Cl)CN2C(=O)CN1C(=O)CO` (single isomer, unassigned; isomer 1) [Compound 87]: under setting [2], the half-inhibitory concentration (IC50) was < 1 µM.

On to `O=C1OC[C@@H]2C[C@H](c3c(O)ccc(Cl)c3Cl)CCN12` [Compound 252, (7R,8aS)-7-(2,3-dichloro-6-hydroxyphenyl)-hexahydro-[1,3]oxazolo[3,4-a]pyridin-3-one], for which, under setting [2], the IC50 was < 1 µM.

Consider `C[C@H]1C(=O)N2C[C@@H](c3c(O)ccc(Cl)c3Cl)C[C@H]2CN1C(=O)CO` [Compound 60, (3S,7R,8aS)-7-(2,3-dichloro-6-hydroxyphenyl)-2-(2-hydroxyacetyl)-3-methyl-hexahydropyrrolo[1,2-a]pyrazin-4-one], for which, under setting [1], the IC50 is < 1 µM.

For the molecule `O=C(CO)N1CC(=O)N2C[C@H](c3c(O)ccc(Cl)c3Cl)CC[C@H]2C1` (relative stereo) [Compound 13, (7S,9aS)-rel-7-(2,3-dichloro-6-hydroxyphenyl)-2-(2-hydroxyacetyl)-hexahydro-1H-pyrido[1,2-a]pyrazin-4-one], the IC50 under setting [1] was < 1 µM.

For the molecule `O=C1CC[C@@H](O)[C@@H]2C[C@H](c3c(O)ccc(Cl)c3Cl)CN12` (single isomer, unassigned) [Compound 227], the IC50 under setting [2] was < 1 µM.

Turning to `Nc1cnc(N2CC(=O)N3C[C@@H](c4c(O)ccc(Cl)c4Cl)C[C@H]3C2)nc1` [Compound 170, (7R,8aS)-2-(5-aminopyrimidin-2-yl)-7-(2,3-dichloro-6-hydroxyphenyl)-hexahydropyrrolo[1,2-a]pyrazin-4-one], under setting [2], the IC50 was < 1 µM.

As for `CC(=O)NCC1OC[C@@H]2C[C@H](c3c(O)ccc(Cl)c3Cl)CCN2C1=O` (stereo partly drawn) [Compound 186, N-[[(8R,9aS)-8-(2,3-dichloro-6-hydroxyphenyl)-4-oxo-hexahydro-1H-pyrido[2,1-c][1,4]oxazin-3-yl]methyl]acetamide], under setting [2], the IC50 was < 1 µM.

On to `CO[C@@H](CO)C(=O)N1CC(=O)N2CC[C@@H](c3c(O)ccc(Cl)c3Cl)C[C@H]2C1` [Compound 56, (8R,9aS)-8-(2,3-dichloro-6-hydroxyphenyl)-2-[(2S)-3-hydroxy-2-methoxypropanoyl]-hexahydro-1H-pyrido[1,2-a]pyrazin-4-one], for which the IC50 under setting [1] was < 1 µM.

As to `CN1C[C@@H]2C[C@H](c3c(O)ccc(Cl)c3Cl)CN2C1=O` [Compound 291, (6R,7aS)-6-(2,3-dichloro-6-hydroxyphenyl)-2-methyl-tetrahydro-1H-pyrrolo[1,2-c]imidazol-3-one], under setting [2], the IC50 is < 10 µM.

`O=C1[C@@H](CO)NC[C@H]2C[C@@H](c3c(O)ccc(Cl)c3Cl)CCN12` [Compound 36, (3R,8S,9aR)-8-(2,3-dichloro-6-hydroxyphenyl)-3-(hydroxymethyl)-octahydropyrido[1,2-a]pyrazin-4-one]: the IC50 under setting [1] was < 1 µM.

For `C[C@@H](CO)C(=O)N1CC(=O)N2CC[C@H](c3c(O)ccc(Cl)c3Cl)C[C@@H]2C1` [Compound 3, (8S,9aR)-8-(2,3-dichloro-6-hydroxyphenyl)-2-((S)-3-hydroxy-2-methylpropanoyl)octahydro-4H-pyrido[1,2-a]pyrazin-4-one], the IC50 under setting [1] is < 1 µM.

In the case of `O=C1CN(c2ccc(CO)cn2)C[C@@H]2C[C@H](c3c(O)ccc(Cl)c3Cl)CN12` [Compound 168, (7R,8aS)-7-(2,3-dichloro-6-hydroxyphenyl)-2-[5-(hydroxymethyl)pyridin-2-yl]-hexahydropyrrolo[1,2-a]pyrazin-4-one], the IC50 under setting [2] was < 1 µM.

As to `C[C@H](CO)C(=O)N1CC(=O)N2CC[C@H](c3c(O)ccc(Cl)c3Cl)C[C@@H]2C1` [Compound 20, (8S,9aR)-8-(2,3-dichloro-6-hydroxyphenyl)-2-((R)-3-hydroxy-2-methylpropanoyl)octahydro-4H-pyrido[1,2-a]pyrazin-4-one], the concentration for half-maximal inhibition (IC50) under setting [1] is < 1 µM.

Take `O=C1C[C@@H](O)[C@@H](O)[C@@H]2C[C@H](c3c(O)ccc(Cl)c3Cl)CN12` (relative stereo) [Compound 224, (7R,8S)-rel-(2R, 8aS)-2-(2,3-dichloro-6-hydroxyphenyl)-7,8-dihydroxy-hexahydro-1H-indolizin-5-one]: the IC50 under setting [2] is < 1 µM.

For the molecule `O=C(CCO)N1CC(=O)N2CC[C@H](c3c(O)ccc(Cl)c3Cl)C[C@@H]2C1` [Compound 58, (8S,9aR)-8-(2,3-dichloro-6-hydroxyphenyl)-2-(3-hydroxy-propanoyl)octahydro-4H-pyrido[1,2-a]pyrazin-4-one], the IC50 under setting [1] was < 1 µM.

For the molecule `O=C1C[C@H](c2cc[nH]n2)C[C@@H]2C[C@H](c3c(O)ccc(Cl)c3Cl)CN12` (single isomer, unassigned) [Compound 214], the IC50 under setting [2] is < 10 µM.

`O=C1N[C@H](CO)CN2CC[C@@H](c3c(O)ccc(Cl)c3Cl)C[C@@H]12` [Compound 6, (3S,8R,9aS)-8-(2,3-dichloro-6-hydroxyphenyl)-3-(hydroxymethyl)-octahydropyrido[1,2-a]pyrazin-1-one]: under setting [1], the IC50 is < 10 µM.

As to `O=C(CO)N1CC(=O)N2CC[C@H](c3c(O)cc(Cl)c(Cl)c3Cl)C[C@@H]2C1` [Compound 5, (8S,9aR)-2-(2-hydroxyacetyl)-8-(2,3,4-trichloro-6-hydroxyphenyl)-hexahydro-1H-pyrido[1,2-a]pyrazin-4-one], the IC50 under setting [1] is < 1 µM.

Turning to `O=C([C@@H](O)CO)N1CC(=O)N2CC[C@H](c3c(O)ccc(Cl)c3Cl)C[C@@H]2C1` [Compound 51, (8S,9aR)-8-(2,3-dichloro-6-hydroxyphenyl)-2-[(2S)-2,3-dihydroxypropanoyl]-hexahydro-1H-pyrido[1,2-a]pyrazin-4-one], under setting [1], the IC50 was < 1 µM.

Turning to `O=C1CN(c2ncccc2CO)C[C@@H]2C[C@H](c3c(O)ccc(Cl)c3Cl)CN12` [Compound 174], the IC50 under setting [2] was < 10 µM.

As for `NC(=O)[C@@H]1CC(=O)N2C[C@@H](c3c(O)ccc(Cl)c3Cl)C[C@H]2C1` (single isomer, unassigned) [Compound 230], the concentration for half-maximal inhibition (IC50) under setting [2] was < 1 µM.

Regarding `O=C1[C@@H](O)C[C@@H]2C[C@H](c3c(O)ccc(Cl)c3Cl)CN12` (single isomer, unassigned) [Compound 245], under setting [2], the IC50 is < 1 µM.

Consider `O=C1CC[C@@H]2C[C@H](c3c(O)ccc(Cl)c3Cl)CN12` [Compound 244, (6R,7aR)-6-(2,3-dichloro-6-hydroxyphenyl)-hexahydropyrrolizin-3-one], for which, under setting [2], the IC50 is < 1 µM.

As to `C[C@@H]1[C@@H]2C[C@H](c3c(O)ccc(Cl)c3Cl)CCN2C(=O)CN1C(=O)CO` (single isomer, unassigned; isomer 1) [Compound 83], under setting [2], the half-maximal inhibitory concentration (IC50) was < 10 µM.

For `CCN(CC)C(=O)N1CC(=O)N2C[C@@H](c3c(O)ccc(Cl)c3Cl)C[C@H]2C1` [Compound 99, (7R,8aS)-7-(2,3-dichloro-6-hydroxyphenyl)-N,N-diethyl-4-oxo-hexahydropyrro[1,2-a]pyrazine-2-carboxamide], the IC50 under setting [2] is < 1 µM.

Turning to `O=C1CCCN1CC1OC[C@@H]2C[C@H](c3c(O)ccc(Cl)c3Cl)CCN2C1=O` (stereo partly drawn) [Compound 184, 1-[[(8R,9aS)-8-(2,3-dichloro-6-hydroxyphenyl)-4-oxo-hexahydro-1H-pyrido[2,1-c][1,4]oxazin-3-yl]methyl]pyrrolidin-2-one], under setting [2], the IC50 was < 10 µM.

Turning to `O=C1CN(C2CC[C@H](O)[C@@H]2O)C[C@@H]2C[C@H](c3c(O)ccc(Cl)c3Cl)CN12` (relative stereo) [Compound 135, (7R,8aS)-7-(2,3-dichloro-6-hydroxyphenyl)-2-[(2R,3S)-rel-2,3-dihydroxycyclopentyl]-hexahydropyrrolo [1,2-a]pyrazin-4-one], the IC50 under setting [2] was < 1 µM.

Turning to `N#C[C@@H]1CC(=O)N2C[C@@H](c3c(O)ccc(Cl)c3Cl)C[C@H]2C1` (single isomer, unassigned) [Compound 228], the IC50 under setting [2] is < 1 µM.

Consider `CC(C)(O)C(=O)N1CC(=O)N2CC[C@@H](c3c(O)ccc(Cl)c3Cl)C[C@H]2C1` [Compound 31, (8R,9aS)-8-(2,3-dichloro-6-hydroxyphenyl)-2-(2-hydroxy-2-methylpropanoyl)octahydro-4H-pyrido[1,2-a]pyrazin-4-one], for which, under setting [1], the IC50 is < 1 µM.
